Assays:
BV-2 = experiment: Inhibition of LPS-induced nitric oxide production in […] cells after 24 hrs by Griess assay; format: functional, cell-based; conditions: Mus musculus, BV-2, 24 h
[1] = Cytotoxicity against […] cells assessed as cell viability by MTT assay relative to control; format: cell-based, BV-2; set-up: concentration or dose not given beside the values; conditions: Mus musculus, read-out: Activity

Row | SMILES | IC50 (BV-2) [µM] | viability [1] [%]
1 | C=C(C(=O)O)[C@@H]1CC[C@H](C)C2=C(C1)[C@]1(C)C[C@H]2C[C@@]1(C(=O)O)[C@@H]1CC[C@H](C)[C@@H]2CC(=O)C(C)=C2C1 | 32.7 | 90.7
2 | C=C(C(=O)O)[C@@H]1CC[C@]2(C)[C@@H](C1)C(C)=C[C@H]1[C@@H]2C[C@]1(C(=O)O)[C@@H]1CC[C@H](C)[C@@H]2CC(=O)C(C)=C2C1 | 39.8 | 91.1
3 | C=C(C(=O)O)[C@@H]1CC[C@@]2(C)C=C[C@@H]3[C@@](C)(C[C@@]3(C(=O)O)[C@@H]3CC[C@H](C)[C@@H]4CC(=O)C(C)=C4C3)[C@@H]2C1 | 27.3 | 95.7
4 | C=C(C(=O)O)[C@@H]1CC[C@@]2(C)C[C@@H](OC(=O)C(=C)[C@@H]3CC[C@H](C)[C@@H]4CC(=O)C(C)=C4C3)C[C@@](C)(O)[C@@H]2C1 | 40.6 | 97.2
5 | C=C(C(=O)O)[C@@H]1CC[C@H](C)C2=C(C1)[C@@]1(C)C[C@@H]2[C@](C(=O)O)([C@@H]2CC[C@H](C)[C@@H]3CC(=O)C(C)=C3C2)C1 | 38.6 | 90.7
6 | C=C(C(=O)O)[C@@H]1CC[C@@]2(C)[C@@H](OC(=O)C(=C)[C@@H]3CC[C@H](C)[C@@H]4CC(=O)C(C)=C4C3)C=C(C(C)=O)[C@@]2(O)C1 | 30.1 | 95.4
7 | C=C(C(=O)O)[C@@H]1CC[C@H](C)C23C[C@]4(C(=O)O[C@]56C[C@H]4CC[C@H](C)[C@@H]5CC[C@]6(C)O)[C@@H](C(C)=C2C1)[C@@H]3O | 71.8 | 91.8
8 | C=C(C(=O)O)[C@@H]1CC[C@H](C)C2=C[C@@H]3[C@@]4(CC2(C1)[C@@]3(C)O)C(=O)O[C@]12C[C@H]4CC[C@H](C)[C@@H]1CC[C@]2(C)O | 43.6 | 77.3
9 | C=C(C(=O)O)[C@@H]1CC[C@H](C)C2=C(C1)[C@]1(C)C[C@H]2C[C@@]1(C(=O)O)[C@@H]1CC[C@H](C)[C@@H]2CC(=O)C(C)=C2[C@H]1O | 23 | 91.1
10 | C=C(C(=O)O)[C@@H]1CC[C@]2(C)C(=C(C)[C@@H](O)[C@H]3[C@@H]2C[C@]3(C(=O)O)[C@@H]2CC[C@H](C)[C@@H]3CC(=O)C(C)=C3C2)C1 | 29.8 | 94.6
11 | C=C(C(=O)O)[C@@H]1CC[C@H](C)[C@]23C[C@H](C(C)=C2C1)[C@]1(C3)C(=O)O[C@]23C[C@H]1CC[C@H](C)[C@@H]2CC[C@]3(C)O | 17 | 89.1
12 | C=C(C(=O)O)[C@@H]1CC[C@]2(C)[C@@H](C1)C(C)=C[C@@H](OC(=O)C(=C)[C@@H]1CC[C@H](C)[C@@H]3CC(=O)C(C)=C3C1)[C@@H]2O | 33 | 96.7
13 | O=c1c(O)c(-c2ccc(O)c(O)c2)oc2cc(O)cc(O)c12 [QUERCETIN] | 8.7 | 99.5

From ChEMBL document CHEMBL3779831, “Nitric Oxide Inhibitory Dimeric Sesquiterpenoids from Artemisia rupestris” (J Nat Prod, 2016)
